Assay results as given in US6660742B2, “Compositions and methods of the use thereof achiral analogues of CC-1065 and the duocarmycins” (priority 2000, dated 2003).
Like-named read-outs stand apart in the source and are kept apart here.

How the values were obtained:
[1] = system: panel of 60 human cancer cell lines; experiment: NCI in-vitro cytotoxicity screen, whole panel; format: cell-based
[2] = system: SW-620; experiment: NCI screen, SW-620 (Colon Cancer); format: cell-based, human
Description: (§1) The compounds of this invention were also tested against the panel of 60 human cancer cell lines at the National Cancer Institute, Bethesda, Md. […] The cytrotoxicity studies were conducted using a 48 hour exposure, and measuring the optical density of sulforhodamide B-derived color.

[3] = system: MDA-MB-435; experiment: NCI screen, MDA-MB-435 (Breast Cancer); format: cell-based, human
Description: as §1

[4] = system: HOP-92
[5] = system: NCI-H322M; conditions: NCI-H322M; Log10 Concentration −5.3; 48 hour exposure
[6] = system: HCT-15
[7] = system: MDA-MB-231/ATCC; conditions: MDA-NB-231/ATCC, 48 hour exposure
[8] = system: SR; experiment: NCI screen, SR (Leukemia)
Description: as §1

[9] = system: U251; experiment: NCI screen, U251 (CNS Cancer); conditions: U251, 48 hour exposure
Description: as §1

[10] = system: UACC-62; experiment: NCI screen, UACC-62 (Melanoma)
Description: as §1

[11] = system: CCRF-CEM; experiment: NCI screen, CCRF-CEM (Leukemia)
Description: as §1

[12] = system: HT29; experiment: NCI screen, HT29 (Colon Cancer)
Description: as §1

[13] = system: SF-295; experiment: NCI screen, SF-295 (CNS Cancer)
Description: as §1

[14] = system: LOX IMVI; experiment: NCI screen, LOX IMVI (Melanoma); conditions: LOX IMVI, 48 hour exposure
Description: (§2) The compounds of this invention were also tested against the panel of 60 human cancer cell lines at the National Cancer Institute, Bethesda, Md. (44). The cytrotoxicity studies were conducted using a 48 hour exposure, and measuring the optical density of sulforhodamide B-derived color.

[15] = system: SK-MEL-2; experiment: NCI screen, SK-MEL-2 (Melanoma)
Description: as §1

[16] = system: SK-MEL-5; experiment: NCI screen, SK-MEL-5 (Melanoma)
Description: as §1

[17] = system: CAKI-1; experiment: NCI screen, CAKI-1 (Renal Cancer); conditions: CAKI-1, 48 hour exposure
Description: as §1

[18] = system: HCC-2998; experiment: NCI screen, HCC-2998 (Colon Cancer)
Description: as §1

[19] = system: PC-3; experiment: NCI screen, PC-3 (Prostrate Cancer)
Description: as §1

[20] = system: HS 578T; experiment: NCI screen, HS 578T (Breast Cancer); conditions: HS 578T, 48 hour exposure
Description: as §2

[21] = system: SK-OV-3; experiment: NCI screen, SK-OV-3 (Ovarian Cancer)
Description: as §1

[22] = system: EKVX; experiment: NCI screen, EKVX (Non-Small Cell Lung Cancer)
Description: as §1

[23] = system: NCI-H23; experiment: NCI screen, NCI-H23 (Non-Small Cell Lung Cancer)
Description: as §1

[24] = Log10 Concentration −4.3, 48 hour exposure
[25] = Log10 Concentration −5.3, 48 hour exposure
[26] = Log10 Concentration −6.3, 48 hour exposure
[27] = Log10 Concentration −7.3, 48 hour exposure
[28] = Log10 Concentration −8.3, 48 hour exposure

`COC(=O)c1[nH]c2c(O)cc(NC(=O)c3cc4cc(OC)c(OC)c(OC)c4[nH]3)c(CCCl)c2c1C(=O)OC` [Compound 22, Dimethyl 4-(2-chloroethyl)-7-hydroxy-5-(5,6,7-trimethoxyindole-2-carboxamido)indole-2,3-dicarboxylate] was tested, and the range of activity ([1]; 48 hour exposure) was “micromolar range”, the “activity against leukemia cells” value ([1]; leukemia cells) was “none of these compounds showed much activity” and the “activity against melanoma cells” value ([1]; melanoma cells) was “active”. For the same compound, the “activity against solid tumors cells” value ([1]; solid tumors cells) was “strong activity”, the TGI ([2]; 48 hour exposure) was 1.90E−05 Molar and the “Percent Growth” value [2, 24] was −11%. The “Percent Growth” value [2, 25] was 16%, the “Percent Growth” value [2, 26] was 9% and the “Percent Growth” value [2, 27] was 71%. The “Percent Growth” value [2, 28] was 86%, the TGI ([3]; 48 hour exposure) was 3.95E−07 Molar and the “Percent Growth” value [3, 24] was −32%. The “Percent Growth” value [3, 25] was −28%, the “Percent Growth” value [3, 26] was −11% and the “Percent Growth” value [3, 27] was 97%. For the same compound, the “Percent Growth” value [3, 28] was 96%, the TGI ([4]; 48 hour exposure) was 2.57E−06 Molar and the “Percent Growth” value [4, 24] was −38%. The “Percent Growth” value [4, 25] was −5%, the “Percent Growth” value [4, 26] was 12% and the “Percent Growth” value [4, 27] was 97%. For the same compound, the “Percent Growth” value [4, 28] was 101%, the “Percent Growth” value [5] was −8% and the TGI [6] was 4.00E−06 Molar. For the same compound, the TGI [7] was > 5.00E−05 Molar, the “Percent Growth” value ([7]; Log10 Concentration −4.3) was 10% and the “Percent Growth” value ([7]; Log10 Concentration −5.3) was 12%. For the same compound, the “Percent Growth” value ([7]; Log10 Concentration −6.3) was 16%, the “Percent Growth” value ([7]; Log10 Concentration −7.3) was 89% and the “Percent Growth” value ([7]; Log10 Concentration −8.3) was 99%. For the same compound, the TGI ([8]; 48 hour exposure) was >5.00E−05 Molar, the CC50 ([8]; Homo sapiens, 48 h, read-out: LC50) was > 50 µM and the “Percent Growth” value [8, 24] was 20%. The “Percent Growth” value [8, 25] was 27%, the “Percent Growth” value [8, 26] was 21% and the “Percent Growth” value [8, 27] was 28%. For the same compound, the “Percent Growth” value [8, 28] was 51%, the TGI [9] was 8.44E−06 Molar and the “Percent Growth” value ([9]; Log10 Concentration −4.3) was −40%. The “Percent Growth” value ([9]; Log10 Concentration −5.3) was 12%, the “Percent Growth” value ([9]; Log10 Concentration −6.3) was 11% and the “Percent Growth” value ([9]; Log10 Concentration −7.3) was 74%. For the same compound, the “Percent Growth” value ([9]; Log10 Concentration −8.3) was 89%, the TGI ([10]; 48 hour exposure) was 1.85E−07 Molar and the “Percent Growth” value [10, 24] was −89%. The “Percent Growth” value [10, 25] was −78%, the “Percent Growth” value [10, 26] was −58% and the “Percent Growth” value [10, 27] was 76%. For the same compound, the “Percent Growth” value [10, 28] was 90%, the TGI ([11]; 48 hour exposure) was >5.00E−05 Molar and the “Percent Growth” value [11, 24] was 17%. For the same compound, the “Percent Growth” value [11, 25] was 18%, the “Percent Growth” value [11, 26] was 19% and the “Percent Growth” value [11, 27] was 43%. The “Percent Growth” value [11, 28] was 77%, the TGI ([12]; 48 hour exposure) was 2.28E−07 Molar and the “Percent Growth” value [12, 24] was −55%. The “Percent Growth” value [12, 25] was −59%, the “Percent Growth” value [12, 26] was −32% and the “Percent Growth” value [12, 27] was 63%. The “Percent Growth” value [12, 28] was 84%, the “Percent Growth” value [13] was 1% and the TGI ([13]; SF-295, 48 hour exposure) was >5.00E−05 Molar. The “Percent Growth” value ([13]; SF-295, Log10 Concentration −5.3, 48 hour exposure) was 11%, the “Percent Growth” value ([13]; SF-295, Log10 Concentration −6.3, 48 hour exposure) was 14% and the “Percent Growth” value ([13]; SF-295, Log10 Concentration −7.3, 48 hour exposure) was 74%. The “Percent Growth” value ([13]; SF-295, Log10 Concentration −8.3, 48 hour exposure) was 106%, the TGI [14] was 3.84E−07 Molar and the “Percent Growth” value ([14]; Log10 Concentration −4.3) was −61%. For the same compound, the “Percent Growth” value ([14]; Log10 Concentration −5.3) was −23%, the “Percent Growth” value ([14]; Log10 Concentration −6.3) was −9% and the “Percent Growth” value ([14]; Log10 Concentration −7.3) was 66%. For the same compound, the “Percent Growth” value ([14]; Log10 Concentration −8.3) was 81%, the TGI ([15]; 48 hour exposure) was 1.69E−07 Molar and the “Percent Growth” value [15, 24] was −87%. The “Percent Growth” value [15, 25] was −74%, the “Percent Growth” value [15, 26] was −78% and the “Percent Growth” value [15, 27] was 87%. For the same compound, the “Percent Growth” value [15, 28] was 89%, the “Percent Growth” value [16, 24] was −19% and the “Percent Growth” value [16, 25] was 9%. The “Percent Growth” value [16, 26] was −2%, the “Percent Growth” value [16, 27] was 42% and the “Percent Growth” value [16, 28] was 86%. The TGI [17] was 8.01E−06 Molar, the “Percent Growth” value ([17]; Log10 Concentration −4.3) was −40% and the “Percent Growth” value ([17]; Log10 Concentration −5.3) was 10%. The “Percent Growth” value ([17]; Log10 Concentration −6.3) was 12%, the “Percent Growth” value ([17]; Log10 Concentration −7.3) was 83% and the “Percent Growth” value ([17]; Log10 Concentration −8.3) was 97%. For the same compound, the TGI ([18]; 48 hour exposure) was 2.89E−07 Molar, the “Percent Growth” value [18, 24] was −88% and the “Percent Growth” value [18, 25] was −31%. The “Percent Growth” value [18, 26] was −27%, the “Percent Growth” value [18, 27] was 85% and the “Percent Growth” value [18, 28] was 91%. The TGI ([19]; 48 hour exposure) was 6.40E−07 Molar, the “Percent Growth” value [19, 24] was −88% and the “Percent Growth” value [19, 25] was −32%. For the same compound, the “Percent Growth” value [19, 26] was 4%, the “Percent Growth” value [19, 27] was 55% and the “Percent Growth” value [19, 28] was 81%. For the same compound, the TGI [20] was 2.80E−07 Molar, the “Percent Growth” value ([20]; Log10 Concentration −4.3) was −54% and the “Percent Growth” value ([20]; Log10 Concentration −5.3) was −73%. The “Percent Growth” value ([20]; Log10 Concentration −6.3) was −41%, the “Percent Growth” value ([20]; Log10 Concentration −7.3) was 122% and the “Percent Growth” value ([20]; Log10 Concentration −8.3) was 130%. The TGI ([21]; 48 hour exposure) was 8.81E−06 Molar, the “Percent Growth” value [21, 24] was −54% and the “Percent Growth” value [21, 25] was 17%. For the same compound, the “Percent Growth” value [21, 26] was 35%, the “Percent Growth” value [21, 27] was 90% and the “Percent Growth” value [21, 28] was 103%. The TGI ([22]; 48 hour exposure) was 5.14E−07 Molar, the “Percent Growth” value [22, 24] was −83% and the “Percent Growth” value [22, 25] was −62%. For the same compound, the “Percent Growth” value [22, 26] was 1%, the “Percent Growth” value [22, 27] was 102% and the “Percent Growth” value [22, 28] was 102%. For the same compound, the TGI ([23]; 48 hour exposure) was 5.63E−06 Molar, the “Percent Growth” value [23, 24] was −25% and the “Percent Growth” value [23, 25] was 1%. The “Percent Growth” value [23, 26] was 9%, the “Percent Growth” value [23, 27] was 56% and the “Percent Growth” value [23, 28] was 83%.
